# Literature values in US20260216106A1, “DOSAGE FORM FOR INTRA-ARTICULAR INJECTION […] USE IN THE TREATMENT OF A JOINT DISEASE SUCH AS OSTEOARTHRITIS” (priority 2023, published 2026).
# Settings: literature (Niel et al 2006)
structure (smiles),measurement,value
"COc1cc2c(c(OC)c1OC)-c1ccc(OC)c(=O)cc1[C@@H](NC(C)=O)CC2 [colchicine, N-[(7S)-1,2,3,10-tetramethoxy-9-oxo-6,7-dihydro-5H-benzo[a]heptalen-7-yl]acetamide]",lethal dose,0.8 mg/kg
same,toxicity limit dose,0.1 mg/kg
